Experimental data published in paper PMC5218480 (PLoS ONE, 2017).

System: MV-4-11 cells
Experiment: Gene expression microarray analysis (Affymetrix PrimeView) and GSEA
Type: cell-based, human
Design: RFU PODN (11730768_x_at) / Fold change /veh PODN (11730768_x_at) / RFU LINC00158 (11744669_a_at) / Fold change /veh LINC00158 (11744669_a_at) / RFU DUSP10 (11751237_a_at) / Fold change /veh DUSP10 (11751237_a_at) / RFU ID3 (11757404_x_at) / Fold change /veh ID3 (11757404_x_at) / RFU PLEKHG5 (11737974_s_at) / Fold change /veh PLEKHG5 (11737974_s_at) / RFU LRRC4B (11730491_at) / Fold change /veh LRRC4B (11730491_at) / RFU GIMAP4 (11747438_a_at) / Fold change /veh GIMAP4 (11747438_a_at) / RFU KRT8 (11758183_x_at) / Fold change /veh KRT8 (11758183_x_at) / RFU CNN1 (11734310_a_at) / Fold change /veh CNN1 (11734310_a_at) / RFU VPS37D (11726825_at) / Fold change /veh VPS37D (11726825_at) / RFU C10orf10 (11716522_x_at) / Fold change /veh C10orf10 (11716522_x_at) / RFU KIR2DL2 /// KIR2DL4 /// KIR2DL5A /// KIR2DL5B /// KIR2DS1 /// KIR2DS2 /// KIR2DS3 /// KIR2DS4 /// KIR3DL3 /// KIR3DL3 /// KIR3DS1 (11738374_at) / Fold change /veh KIR2DL2 /// KIR2DL4 /// KIR2DL5A /// KIR2DL5B /// KIR2DS1 /// KIR2DS2 /// KIR2DS3 /// KIR2DS4 /// KIR3DL3 /// KIR3DL3 /// KIR3DS1 (11738374_at) / RFU C1QL1 (11718748_at) / Fold change /veh C1QL1 (11718748_at) / RFU TMPRSS4 (11747572_a_at) / Fold change /veh TMPRSS4 (11747572_a_at) / RFU HAMP (11756126_x_at) / Fold change /veh HAMP (11756126_x_at) / RFU RNFT2 (11725882_a_at) / Fold change /veh RNFT2 (11725882_a_at) / RFU NR4A2 (11747474_a_at) / Fold change /veh NR4A2 (11747474_a_at) / RFU ABCC12 (11746883_a_at) / Fold change /veh ABCC12 (11746883_a_at) / RFU TMEM136 (11760407_x_at) / Fold change /veh TMEM136 (11760407_x_at) / RFU CLDN22 /// WWC2 (11732394_at) / Fold change /veh CLDN22 /// WWC2 (11732394_at) / RFU HLA-DPB1 (11760878_x_at) / Fold change /veh HLA-DPB1 (11760878_x_at) / RFU SPINT1 (11716480_a_at) / Fold change /veh SPINT1 (11716480_a_at) / RFU GAP43 (11754022_s_at) / Fold change /veh GAP43 (11754022_s_at) / RFU A4GNT (11735810_at) / Fold change /veh A4GNT (11735810_at) / RFU PRB3 (11715151_x_at) / Fold change /veh PRB3 (11715151_x_at) / RFU TUBB4B (11761932_at) / Fold change /veh TUBB4B (11761932_at) / RFU CAPN14 (11732068_a_at) / Fold change /veh CAPN14 (11732068_a_at) / RFU TMCC2 (11721928_a_at) / Fold change /veh TMCC2 (11721928_a_at) / RFU IRGQ (11745062_a_at) / Fold change /veh IRGQ (11745062_a_at) / RFU FAM174B (11720279_a_at) / Fold change /veh FAM174B (11720279_a_at) / RFU TMPRSS4 (11748680_a_at) / Fold change /veh TMPRSS4 (11748680_a_at) / RFU FAM212B (11763350_a_at) / Fold change /veh FAM212B (11763350_a_at) / RFU PLEKHG5 (11743358_a_at) / Fold change /veh PLEKHG5 (11743358_a_at) / RFU ZSCAN30 (11745921_a_at) / Fold change /veh ZSCAN30 (11745921_a_at) / RFU CMKLR1 (11741424_a_at) / Fold change /veh CMKLR1 (11741424_a_at) / RFU LOC101060620 /// MAPK8IP1 (11723275_at) / Fold change /veh LOC101060620 /// MAPK8IP1 (11723275_at) / RFU SPTSSB (11747773_x_at) / Fold change /veh SPTSSB (11747773_x_at) / RFU PRSS12 (11739890_at) / Fold change /veh PRSS12 (11739890_at) / RFU BIN1 (11741810_x_at) / Fold change /veh BIN1 (11741810_x_at) / RFU WNT11 (11732464_a_at) / Fold change /veh WNT11 (11732464_a_at) / RFU C10orf10 (11716521_a_at) / Fold change /veh C10orf10 (11716521_a_at) / RFU C5orf56 (11738089_at) / Fold change /veh C5orf56 (11738089_at) / RFU CYB561 (11721691_x_at) / Fold change /veh CYB561 (11721691_x_at) / RFU ANKRD19P (11752326_a_at) / Fold change /veh ANKRD19P (11752326_a_at) / RFU OR2T12 /// OR2T33 /// OR2T8 (11738714_s_at) / Fold change /veh OR2T12 /// OR2T33 /// OR2T8 (11738714_s_at) / RFU VCAN (11748164_a_at) / Fold change /veh VCAN (11748164_a_at) / RFU JSRP1 (11732532_at) / Fold change /veh JSRP1 (11732532_at) / RFU KRTAP10-11 (11738290_x_at) / Fold change /veh KRTAP10-11 (11738290_x_at) / RFU MYO3A (11730013_a_at) / Fold change /veh MYO3A (11730013_a_at) / RFU EBF3 (11725865_a_at) / Fold change /veh EBF3 (11725865_a_at) / RFU CAMK2N1 (11719241_x_at) / Fold change /veh CAMK2N1 (11719241_x_at) / RFU C5orf56 (11738088_a_at) / Fold change /veh C5orf56 (11738088_a_at) / RFU OLFML3 (11715873_a_at) / Fold change /veh OLFML3 (11715873_a_at) / RFU LOC100653217 /// NTM (11731650_a_at) / Fold change /veh LOC100653217 /// NTM (11731650_a_at) / RFU MAPK11 (11762145_a_at) / Fold change /veh MAPK11 (11762145_a_at) / RFU FIZ1 (11724087_x_at) / Fold change /veh FIZ1 (11724087_x_at) / RFU OASL (11726364_x_at) / Fold change /veh OASL (11726364_x_at) / RFU SOX15 (11748057_x_at) / Fold change /veh SOX15 (11748057_x_at) / RFU CD79A (11719716_a_at) / Fold change /veh CD79A (11719716_a_at) / RFU HIST1H1D (11736915_at) / Fold change /veh HIST1H1D (11736915_at) / RFU CASKIN2 (11723855_a_at) / Fold change /veh CASKIN2 (11723855_a_at) / RFU LOC730098 (11760151_x_at) / Fold change /veh LOC730098 (11760151_x_at) / RFU OR4N2 (11742367_at) / Fold change /veh OR4N2 (11742367_at) / RFU PRRT2 (11749266_a_at) / Fold change /veh PRRT2 (11749266_a_at) / RFU SNX32 (11753110_a_at) / Fold change /veh SNX32 (11753110_a_at) / RFU CDHR5 (11726645_a_at) / Fold change /veh CDHR5 (11726645_a_at) / RFU RCAN1 (11760418_a_at) / Fold change /veh RCAN1 (11760418_a_at) / RFU FAM167A (11723789_a_at) / Fold change /veh FAM167A (11723789_a_at) / RFU FAM26E (11764081_at) / Fold change /veh FAM26E (11764081_at) / RFU ISYNA1 (11749810_s_at) / Fold change /veh ISYNA1 (11749810_s_at) / RFU ACY1 (11761880_at) / Fold change /veh ACY1 (11761880_at) / RFU 11764098_at / Fold change /veh 11764098_at / RFU SAMD14 (11745864_x_at) / Fold change /veh SAMD14 (11745864_x_at) / RFU NPB (11741838_a_at) / Fold change /veh NPB (11741838_a_at) / RFU TMPRSS6 (11731388_a_at) / Fold change /veh TMPRSS6 (11731388_a_at) / RFU KRTAP10-2 (11738614_at) / Fold change /veh KRTAP10-2 (11738614_at) / RFU ARHGAP8 /// PRR5-ARHGAP8 (11727945_x_at) / Fold change /veh ARHGAP8 /// PRR5-ARHGAP8 (11727945_x_at) / RFU KRTAP5-7 /// NADSYN1 (11734609_at) / Fold change /veh KRTAP5-7 /// NADSYN1 (11734609_at) / RFU RASL12 (11751679_a_at) / Fold change /veh RASL12 (11751679_a_at) / RFU CDKN2B (11736163_a_at) / Fold change /veh CDKN2B (11736163_a_at) / RFU PRF1 (11729649_at) / Fold change /veh PRF1 (11729649_at) / RFU, ZNF638 /// ZNF638-IT1 / Fold change vs veh, ZNF638 /// ZNF638-IT1 / RFU, PANK3 / Fold change vs veh, PANK3 / RFU, SH3YL1 / Fold change vs veh, SH3YL1 / RFU, ZEB2 / Fold change vs veh, ZEB2 / RFU, NRIP1 / Fold change vs veh, NRIP1 / RFU, PTTG1IP / Fold change vs veh, PTTG1IP / RFU, CAPN2 / Fold change vs veh, CAPN2 / RFU, MED14 / Fold change vs veh, MED14 / RFU, SNORA58 / Fold change vs veh, SNORA58 / RFU, C1orf63 / Fold change vs veh, C1orf63 / RFU, LRRFIP1 / Fold change vs veh, LRRFIP1 / RFU, NDUFAF7 / Fold change vs veh, NDUFAF7 / RFU, SLC12A2 / Fold change vs veh, SLC12A2 / RFU, IBTK / Fold change vs veh, IBTK / RFU, ESF1 / Fold change vs veh, ESF1 / Fold change vs veh, TMEM50B / RFU, TAOK1 / Fold change vs veh, TAOK1 / RFU, ACBD3 / Fold change vs veh, ACBD3 / RFU, TMA16 / Fold change vs veh, TMA16 / RFU, RWDD3 / Fold change vs veh, RWDD3 / RFU, BCAT1 / Fold change vs veh, BCAT1 / RFU, EDEM3 / Fold change vs veh, EDEM3 / RFU, TMEM33 / Fold change vs veh, TMEM33 / RFU, WDR75 / Fold change vs veh, WDR75 / RFU, AHCTF1 / Fold change vs veh, AHCTF1 / RFU, TFRC / Fold change vs veh, TFRC / RFU, ZDHHC17 / Fold change vs veh, ZDHHC17 / RFU, NOM1 / Fold change vs veh, NOM1 / RFU, ARL8B / Fold change vs veh, ARL8B / RFU, ZBTB11 / Fold change vs veh, ZBTB11 / RFU, TAMM41 / Fold change vs veh, TAMM41 / RFU, KIAA1704 /// LOC100996395 / Fold change vs veh, KIAA1704 /// LOC100996395 / RFU, ING1 / Fold change vs veh, ING1 / RFU, TRMT61B / Fold change vs veh, TRMT61B / RFU, FUBP3 / Fold change vs veh, FUBP3 / RFU, TP53 / Fold change vs veh, TP53 / RFU, TNKS2 / Fold change vs veh, TNKS2 / RFU, ZFP14 / Fold change vs veh, ZFP14 / RFU, ACTR2 / Fold change vs veh, ACTR2 / RFU, PPP3R1 / Fold change vs veh, PPP3R1 / RFU, PIK3R1 / Fold change vs veh, PIK3R1 / RFU, HNRNPA1 / Fold change vs veh, HNRNPA1 / RFU, RNF170 / Fold change vs veh, RNF170 / RFU, ZNF28 / Fold change vs veh, ZNF28 / RFU, RNGTT / Fold change vs veh, RNGTT / RFU, OGT / Fold change vs veh, OGT / RFU, BRD1 / Fold change vs veh, BRD1 / RFU, MARS / Fold change vs veh, MARS / RFU, ZNF655 / Fold change vs veh, ZNF655 / RFU, FAHD1 / Fold change vs veh, FAHD1 / RFU, BDP1 / Fold change vs veh, BDP1 / RFU, LRRCC1 / Fold change vs veh, LRRCC1 / RFU, ARID1A / Fold change vs veh, ARID1A / RFU, ZNF146 / Fold change vs veh, ZNF146 / RFU, ZNF330 / Fold change vs veh, ZNF330 / RFU, GPN3 / Fold change vs veh, GPN3 / RFU, C9orf123 / Fold change vs veh, C9orf123 / RFU, N4BP2L2 / Fold change vs veh, N4BP2L2 / RFU, ARFIP1 / Fold change vs veh, ARFIP1 / RFU, FAM179B / Fold change vs veh, FAM179B / RFU, BCL10 / Fold change vs veh, BCL10 / RFU, UHRF1BP1L / Fold change vs veh, UHRF1BP1L / RFU, BET1 / Fold change vs veh, BET1 / RFU, CNOT2 / Fold change vs veh, CNOT2 / RFU, ZNF268 / Fold change vs veh, ZNF268 / Fold change vs veh, ZNF507 / RFU, DGCR2 / Fold change vs veh, DGCR2 / RFU, WDSUB1 / Fold change vs veh, WDSUB1 / Fold change vs veh, HSP90B1 /// MIR3652 / RFU, ADSS / Fold change vs veh, ADSS / RFU, GK / Fold change vs veh, GK / RFU, ZNF148 / Fold change vs veh, ZNF148 / RFU, TAF9 / Fold change vs veh, TAF9 / RFU, SLC1A5 / Fold change vs veh, SLC1A5 / RFU, SLMO2 / Fold change vs veh, SLMO2 / RFU, ABCC4 / Fold change vs veh, ABCC4 / RFU, LOC101060439 /// RAP1B / Fold change vs veh, LOC101060439 /// RAP1B / RFU, RFX7 / Fold change vs veh, RFX7 / RFU, GTPBP10 / Fold change vs veh, GTPBP10 / RFU, CNEP1R1 / Fold change vs veh, CNEP1R1 / RFU, BIVM-ERCC5 /// ERCC5 / Fold change vs veh, BIVM-ERCC5 /// ERCC5 / RFU, ILF3 / Fold change vs veh, ILF3 / RFU 11762660_at / Fold change /veh 11762660_at / RFU VCAN (11757783_s_at) / Fold change /veh VCAN (11757783_s_at) / RFU DDX43 (11728927_at) / Fold change /veh DDX43 (11728927_at) / RFU KRT8 (11758188_x_at) / Fold change /veh KRT8 (11758188_x_at) / RFU NKD1 (11759106_at) / Fold change /veh NKD1 (11759106_at) / RFU SRD5A1 (11742802_a_at) / Fold change /veh SRD5A1 (11742802_a_at) / RFU TPSAB1 /// TPSB2 (11721975_s_at) / Fold change /veh TPSAB1 /// TPSB2 (11721975_s_at) / RFU GSTM3 (11746129_a_at) / Fold change /veh GSTM3 (11746129_a_at) / RFU IL23R (11737362_x_at) / Fold change /veh IL23R (11737362_x_at) / RFU TMEM51 (11727254_a_at) / Fold change /veh TMEM51 (11727254_a_at) / RFU PIWIL2 (11732686_x_at) / Fold change /veh PIWIL2 (11732686_x_at) / RFU ORM1 (11744905_x_at) / Fold change /veh ORM1 (11744905_x_at) / RFU CCDC152 (11743942_at) / Fold change /veh CCDC152 (11743942_at) / RFU ECM1 (11717891_a_at) / Fold change /veh ECM1 (11717891_a_at) / RFU IL23R (11748794_a_at) / Fold change /veh IL23R (11748794_a_at) / RFU TNFAIP8L3 (11732012_x_at) / Fold change /veh TNFAIP8L3 (11732012_x_at) / RFU MBOAT4 (11741988_at) / Fold change /veh MBOAT4 (11741988_at) / RFU 11764193_at / Fold change /veh 11764193_at / RFU TMEM53 (11763286_at) / Fold change /veh TMEM53 (11763286_at) / RFU MAGEB2 (11727129_at) / Fold change /veh MAGEB2 (11727129_at) / RFU TMEM200A (11744735_a_at) / Fold change /veh TMEM200A (11744735_a_at) / RFU CCDC152 (11751479_a_at) / Fold change /veh CCDC152 (11751479_a_at) / RFU FAM211A (11726209_a_at) / Fold change /veh FAM211A (11726209_a_at) / RFU RGS16 (11746705_a_at) / Fold change /veh RGS16 (11746705_a_at) / RFU VCAN (11755009_s_at) / Fold change /veh VCAN (11755009_s_at) / RFU RHOB (11743442_s_at) / Fold change /veh RHOB (11743442_s_at) / RFU RGS16 (11720943_a_at) / Fold change /veh RGS16 (11720943_a_at) / RFU RGS16 (11720944_at) / Fold change /veh RGS16 (11720944_at) / RFU, VPS4B / Fold change vs veh, VPS4B / RFU, CREB1 / Fold change vs veh, CREB1 / RFU, DNAJC13 / Fold change vs veh, DNAJC13 / RFU, GNAQ / Fold change vs veh, GNAQ / RFU, CDK5R1 / Fold change vs veh, CDK5R1 / RFU, ZRANB3 / Fold change vs veh, ZRANB3 / RFU, CUL4A / Fold change vs veh, CUL4A / RFU, CCNY / Fold change vs veh, CCNY / RFU, UFL1 / Fold change vs veh, UFL1 / RFU, COG3 / Fold change vs veh, COG3 / RFU, DIAPH2 / Fold change vs veh, DIAPH2 / RFU, SKA2 / Fold change vs veh, SKA2 / RFU, AFF3 / Fold change vs veh, AFF3 / RFU, LMF1 / Fold change vs veh, LMF1 / RFU, IPO11 / Fold change vs veh, IPO11 / RFU, DFFB / Fold change vs veh, DFFB / RFU, FOXP1 / Fold change vs veh, FOXP1 / RFU, CARD8 / Fold change vs veh, CARD8 / RFU, STRN3 / Fold change vs veh, STRN3 / RFU, ADK / Fold change vs veh, ADK / RFU, RASSF2 / Fold change vs veh, RASSF2 / RFU, WIPF1 / Fold change vs veh, WIPF1 / RFU, LARP1B / Fold change vs veh, LARP1B / RFU, RASA1 / Fold change vs veh, RASA1 / RFU, RB1 / Fold change vs veh, RB1 / RFU, PPFIA1 / Fold change vs veh, PPFIA1 / RFU, MAT2A / Fold change vs veh, MAT2A / RFU, CCT5 / Fold change vs veh, CCT5 / RFU, WDR92 / Fold change vs veh, WDR92 / RFU, CUX1 / Fold change vs veh, CUX1 / RFU, TTC7A / Fold change vs veh, TTC7A / RFU, TMEM135 / Fold change vs veh, TMEM135 / RFU, DEPTOR / Fold change vs veh, DEPTOR / RFU, CPM / Fold change vs veh, CPM / RFU, DNAJB6 / Fold change vs veh, DNAJB6 / RFU, CACNA2D3 / Fold change vs veh, CACNA2D3 / RFU, DTX4 / Fold change vs veh, DTX4 / RFU, TFCP2 / Fold change vs veh, TFCP2 / RFU, GMCL1 /// GMCL1P1 / Fold change vs veh, GMCL1 /// GMCL1P1 / RFU, AEBP2 / Fold change vs veh, AEBP2 / RFU, SNHG1 /// SNORD22 /// SNORD25 /// SNORD26 /// SNORD27 /// SNORD28 /// SNORD29 /// SNORD31 / Fold change vs veh, SNHG1 /// SNORD22 /// SNORD25 /// SNORD26 /// SNORD27 /// SNORD28 /// SNORD29 /// SNORD31 / Fold change (Aza/veh), C12orf56 (ProbeSet 11735607_a_at) / Fold change (ACY-1035/veh), C12orf56 (ProbeSet 11735607_a_at) / Fold change (Aza/veh), FGFR1OP (ProbeSet 11751329_s_at) / Fold change (ACY-1035/veh), FGFR1OP (ProbeSet 11751329_s_at) / Fold change (Aza/veh), VPS36 (ProbeSet 11739960_a_at) / Fold change (ACY-1035/veh), VPS36 (ProbeSet 11739960_a_at) / RFU SYPL1 (11715823_x_at) / Fold change /veh SYPL1 (11715823_x_at) / RFU IGFBP7 (11715501_s_at) / Fold change /veh IGFBP7 (11715501_s_at) / RFU REEP3 (11722064_at) / Fold change /veh REEP3 (11722064_at) / RFU IGLL1 (11728026_x_at) / Fold change /veh IGLL1 (11728026_x_at): dose or concentration left out as unconfirmed
Details: ProbeSet 11719817_x_at; LIST B

Structure (SMILES): Nc1ccc(-c2cccs2)cc1NC(=O)c1ccc2c(c1)cc(C1CC1)n2CCN1CCOCC1 [ACY-1035]
- Fold change vs veh, BET1: 0.95
